Like-named read-outs stand apart in the source and are kept apart here.
Key:
[1] = test system: patient leukemic cells (AML samples); test: cells; type: cell-based
Protocol: (§1) After informed consent bone marrow and peripheral blood cells were obtained at diagnosis from 6 pediatric AML patients aged 0-18 years. The diagnosis is assessed by cytomorphology using FAB classification and immunophenotyping (Bennett J M et al., Br. J. Haematol. 33: 451-458, 1976). Mononuclear cells (MNC) are separated by Lymphoprep (Nycomed, Oslo, Norway) density gradients and cryopreserved in liquid nitrogen until use. Cryopreserved AML cells are thawed rapidly at 37° C., diluted in a 5× volume of normal calf serum (NCS) as described by Dokter W H et al., Leukemia 9: 425-432, 1995. The remaining pellet is T-cell depleted by sheep red blood cells and separated over lymphoprep density gradient. Remaining blast cell population contained more than 95% AML cells, hereafter referred to as AML cells and cultured in RPMI-1640 supplemented with penicillin/streptomycin and 10% fetal bovine serum.
For the leukemic samples (10,000 cells/well) of the patients a 3-day cell culture is used. […] The optical density (OD) is linearly related to the number of viable cells. Control wells contain leukemic cells only with culture media without drugs, and blank wells contain culture media only. […] The LC50 value (drug concentration needed to kill 50% of the leukemic cells) is used to compare the differences between patients and/or various drug combinations. LC50 value equation: ([% leukemic cell survival >50%]−50)/([% leukemic cell survival >50%]−[% leukemic cell survival <50%])×(drug concentration when leukemic cell survival <50%−drug concentration when leukemic cell survival >50%)+(drug concentration when leukemic cell survival >50%).

TF-1 cells [2] = test: Survival assay, viable cells counted by trypan blue exclusion after 24 hours; type: cell-based
Protocol: The cell lines HL-60, TF-1, K562 and U937 are obtained from American Type Culture Collection (Manassas, Va., USA) and cultured in RPMI-1640 (Roswell Park Memorial Institute) supplemented with penicillin/streptomycin and 10% fetal bovine serum (FBS, Hyclone, Logan, Utah, USA) for U937, K562 and HL-60 cells and supplemented with GM-CSF 1 ng/mL for TF-1 cells.
(§2) Before incubation with recombinant (rec) VEGF165 (Sigma, St. Louis, […].) and/or PTK787, AML cells and/or cell lines are serum starved for 4 hours in serum free medium (X-vivo 10, Biowhitaker, Brussels, Belgium). For proliferation experiments, cells are cultured in six-well plates (Corning-Costar Corp., Cambridge, Mass., USA), at a cell density of 1×10^5 cells per well in serum free medium (X-vivo-10) for 24 hours. Cells are treated (rec VEGF165 5-100 ng/mL) or untreated (media alone) and are cultured in the presence or absence of PTK787 (5-100 nM). After 24 hours viable cells (determined by trypan blue exclusion) are counted in triplicate using a hemocytometer. Each experiment is done in triplicate, and experiments with leukemic cell lines are repeated three times.

TF-1 cells [3] = test: Apoptosis shown by PI DNA labeling (cell cycle analysis); type: cell-based; conditions: dose-dependent, overnight culture, 5% in control wells
Protocol: Cells are washed with PBS and resuspended in 75% ethanol in PBS and kept at 4° C. for at least 30 minutes. Prior to analysis, cells are washed with PBS, resuspended and incubated for 30 minutes in 1 mg/mL RNase A in PBS and thereafter incubated in staining solution containing 0.05 mg/mL propidium iodide (Sigma), 1 mM EDTA and 0.1% Triton-X-100. The suspension is then passed through a nylon mesh filter and analyzed on Becton Dickinson FACScan.

HL-60 cells = test: Total cell kill assay (MTT), leukemic cell line; type: cell-based; conditions: PTK787 in different concentrations
Protocol: (§3) In vitro cellular drug resistance of leukemic HL-60 and TF-1 cells (10,000 cells/well) are assessed using a 2-day cell culture assay based on the principle that only viable cells are able to reduce 3-(4,5-dimethyl-2-thiazolyl)-2,5-diphenyl-tetrazolium bromide (MTT) (5 mg/mL in PBS added to each well for 4 hours) to a colored formazan product, measured spectrophotometrically at 520 nm. For the leukemic samples (10,000 cells/well) of the patients a 3-day cell culture is used. […] The optical density (OD) is linearly related to the number of viable cells. Control wells contain leukemic cells only with culture media without drugs, and blank wells contain culture media only. Percentage of cell survival is calculated at each drug concentration by the equation (mean OD treated wells/mean OD control wells)×100% after correction for the background found in the blank wells. The results are considered evaluable when the control wells still contain 70% or more leukemic cells (determined by MGG staining) after a 3-day culture period. The mean OD of the control wells after correction for the background at 3 days always exceeds 0.1 arbitrary units for valid results. The LC50 value (drug concentration needed to kill 50% of the leukemic cells) is used to compare the differences between patients and/or various drug combinations. […]

TF-1 cells [4] = test: Total cell kill assay (MTT), leukemic cell line; type: cell-based; conditions: PTK787 in different concentrations
Protocol: as §3

K562 cells = test: Total cell kill assay (MTT), leukemic cell line; type: cell-based; conditions: PTK787 in different concentrations
[5] = test system: primary AML cells of pediatric AML patients; test: Patient leukemic cell survival counted by trypan blue exclusion; type: cell-based, human
Protocol: as §1, §2
Correlations are calculated using the Spearman rank correlation coefficient (rho). A paired sample non-parametric test (Wilcoxon Signed Ranks test) is used to analyze the paired viable cells (with or without VEGF, as well as with or without PTK787). A significant difference is defined as a P-value <0.05.

[6] = test system: A431 epidermoid, Ls174T colon, HT-29 colon, PC-3 prostate carcinoma; conditions: HT-29, PC-3 carcinomas; cited from earlier work
[7] = Homo sapiens, read-out: LC50 value, Patient No. 1, drug alone
[8] = Homo sapiens, read-out: LC50 value, Patient No. 1, with PTK787 5 nM
[9] = Homo sapiens, read-out: LC50 value, Patient No. 1, with PTK787 10 nM
[10] = Homo sapiens, read-out: LC50 value, Patient No. 1, with PTK787 25 nM
[11] = Homo sapiens, read-out: LC50 value, Patient No. 2, drug alone
[12] = Homo sapiens, read-out: LC50 value, Patient No. 2, with PTK787 5 nM
[13] = Homo sapiens, read-out: LC50 value, Patient No. 3, drug alone
[14] = Homo sapiens, read-out: LC50 value, Patient No. 3, with PTK787 5 nM
[15] = Homo sapiens, read-out: LC50 value, Patient No. 4, drug alone
[16] = Homo sapiens, read-out: LC50 value, Patient No. 4, with PTK787 5 nM
[17] = Homo sapiens, read-out: LC50 value, Patient No. 5, drug alone
[18] = Homo sapiens, read-out: LC50 value, Patient No. 5, with PTK787 5 nM
[19] = PTK787 (25 nM) plus exogenous VEGF165

SMILES	CC50 [1, 7] [µg/mL]	CC50 [1, 8] [µg/mL]	CC50 [1, 9] [µg/mL]	CC50 [1, 10] [µg/mL]	CC50 [1, 11] [µg/mL]	CC50 [1, 12] [µg/mL]	CC50 [1, 13] [µg/mL]	CC50 [1, 14] [µg/mL]	CC50 [1, 15] [µg/mL]	CC50 [1, 16] [µg/mL]	CC50 [1, 17] [µg/mL]	CC50 [1, 18] [µg/mL]	also measured
Nc1ccn([C@@H]2O[C@H](CO)[C@@H](O)[C@@H]2O)c(=O)n1 [Cytarabine, cytarabine]	400	260	250	35	5	0.6	4.7	0.23	1500	560	3	0.24	CC50 ([1]; Homo sapiens, read-out: LC50 value, Patient No. 4, with PTK787 10 nM): 10 µg/mL; CC50 ([1]; Homo sapiens, read-out: LC50 value, Patient No. 4, with PTK787 25 nM): 0.2 µg/mL
Clc1ccc(Nc2nnc(Cc3ccncc3)c3ccccc23)cc1 [PTK787]													TF-1 cell survival (TF-1 cells [2]; 25 nM PTK787, 24 hours): 21.9%; effect of PTK787 on cell survival on addition of rec VEGF (TF-1 cells [2]; 25 and 50 nM PTK787 plus rec VEGF, TF-1 cells): can be blocked; apoptosis (fraction of apoptotic cells) (TF-1 cells [3]): up to 12%; leukemic cell survival (HL-60 cells): up to 1%; leukemic cell survival (TF-1 cells [4]): up to 10%; leukemic cell survival (K562 cells): no decrease at all; decrease in cell survival, median [5, 19]: 15%; decrease in cell survival, range over patients [5, 19]: 0%-35.5%; decrease in cell survival, range over patients ([5]; PTK787 alone (25 nM)): 28.2%-75.4%; decrease in cell survival (cell death), median ([5]; PTK787 alone (25 nM), patient samples, p-value 0.043): 55.1%; CC50 ([1]; Patient No. 1, 72 hours, read-out: LC50 value): > 25 nM; CC50 ([1]; Patient No. 2, 72 hours, read-out: LC50 value): 7.3 nM; CC50 ([1]; Patient No. 3, 72 hours, read-out: LC50 value): 5.8 nM; CC50 ([1]; Patient No. 4, 72 hours, read-out: LC50 value): 25 nM; CC50 ([1]; Patient No. 5, 72 hours, read-out: LC50 value): 7.7 nM; CC50 ([1]; Patient No. 6, 72 hours, read-out: LC50 value): 14.5 nM; growth of human carcinomas transplanted orthotopically into mice [6]: inhibits the growth; vessel density in the tumor tissues [6]: does reduce vessel density
O=C1c2c(O)ccc(O)c2C(=O)c2c(NCCNCCO)ccc(NCCNCCO)c21 [Mitoxantrone, mitoxantrone]	0.23	0.16	0.19	0.03	0.0175	6.1e-05	0.043	0.0004	0.054	2.3e-05	0.0186	6.1e-05	CC50 ([1]; Homo sapiens, read-out: LC50 value, Patient No. 5, with PTK787 10 nM): 8e-07 µg/mL
